Experimental data as given in ChEMBL document CHEMBL1201862, “PubChem BioAssay data set” (2004).
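Results reflect a 48-hour exposure of cells in 96-well plates to compound at five concentrations. Abbreviation: GI50, concentration required for 50% inhibition of growth.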 Activity calls are given as the source filed them. Cut-off read from the data, not from the text of the source: active = GI50 up to about 1.1 µM and inactive = higher.

Columns and labels:
Test in all cases: NCI anticancer screen, dose series, 48 h
ACHN = system: ACHN
COLO 205 = system: COLO 205
EKVX = system: EKVX
HCC 2998 = system: HCC 2998
HT-29 = system: HT-29
MDA-MB-231 = system: MDA-MB-231
MDA-N = system: MDA-N
NCI-H226 = system: NCI-H226
RPMI-8226 = system: RPMI-8226
RXF 393 = system: RXF 393
SF-539 = system: SF-539
SK-MEL-28 = system: SK-MEL-28
SK-MEL-2 = system: SK-MEL-2
SK-MEL-5 = system: SK-MEL-5
SR = system: SR
T47D = system: T47D
UACC-257 = system: UACC-257
CAKI-1 = system: CAKI-1
BT-549 = system: BT-549

Row | SMILES | GI50 (ACHN) | GI50 (COLO 205) | GI50 (EKVX) | GI50 (HCC 2998) | GI50 (HT-29) | GI50 (MDA-MB-231) | GI50 (MDA-N) | GI50 (NCI-H226) | GI50 (RPMI-8226) | GI50 (RXF 393) | GI50 (SF-539) | GI50 (SK-MEL-28) | GI50 (SK-MEL-2) | GI50 (SK-MEL-5) | GI50 (SR) | GI50 (T47D) | GI50 (UACC-257) | GI50 (CAKI-1) | GI50 (BT-549)
1 | C=CC1(c2ccc(-c3ccccc3)cc2)OCCO1 | > 100 µM (inactive) | 31.3 µM (inactive) | 49.2 µM (inactive) | 63.7 µM (inactive) | 28.2 µM (inactive) | > 100 µM (inactive) | 50.9 µM (inactive) | 22.9 µM (inactive) | > 100 µM (inactive) | 39.4 µM (inactive) | > 100 µM (inactive) | > 100 µM (inactive) | 16.6 µM (inactive) | 35 µM (inactive) | 45.9 µM (inactive) | 51.2 µM (inactive) | 78.9 µM (inactive) |  | 
2 | CCCCCCCCCCCCOCC1(COCCCCCCCCCCCC)COC(c2ccc(N)cc2)OC1 | > 100 µM (inactive) |  | > 100 µM (inactive) | > 100 µM (inactive) | > 100 µM (inactive) | > 100 µM (inactive) | > 100 µM (inactive) | > 100 µM (inactive) | > 100 µM (inactive) |  | > 100 µM (inactive) | > 100 µM (inactive) | > 100 µM (inactive) | > 100 µM (inactive) | > 100 µM (inactive) | > 100 µM (inactive) | > 100 µM (inactive) | > 100 µM (inactive) | 
3 | COc1ccccc1C1(c2c(OC(C)C)c(=O)c2=O)SCCCS1 | > 100 µM (inactive) | > 100 µM (inactive) | > 100 µM (inactive) |  | > 100 µM (inactive) | > 100 µM (inactive) | > 100 µM (inactive) | > 100 µM (inactive) |  | > 100 µM (inactive) | > 100 µM (inactive) | 87.1 µM (inactive) | > 100 µM (inactive) | > 100 µM (inactive) |  | > 100 µM (inactive) | > 100 µM (inactive) | > 100 µM (inactive) | 72.6 µM (inactive)
4 | O=S1(=O)OCCCOS(=O)(=O)C1(Br)Br | > 100 µM (inactive) | > 100 µM (inactive) | > 100 µM (inactive) |  | > 100 µM (inactive) |  | > 100 µM (inactive) | > 100 µM (inactive) | > 100 µM (inactive) | > 100 µM (inactive) |  | > 100 µM (inactive) | > 100 µM (inactive) | > 100 µM (inactive) | > 100 µM (inactive) | > 100 µM (inactive) | > 100 µM (inactive) | > 100 µM (inactive) | > 100 µM (inactive)
5 | CC(=O)N1c2ccccc2[C@H]2CCc3c([nH]c4ccccc34)[C@H]21 | 16 µM (inactive) | 13.2 µM (inactive) | 14.5 µM (inactive) |  | 8.11 µM (inactive) | 11.4 µM (inactive) | 18.5 µM (inactive) | 13.9 µM (inactive) | 6.27 µM (inactive) | 13.2 µM (inactive) | 11.8 µM (inactive) | 14.7 µM (inactive) | 19.2 µM (inactive) | 12.9 µM (inactive) |  | 18.7 µM (inactive) | 31.6 µM (inactive) | 15.6 µM (inactive) | 11 µM (inactive)
6 | CC1C2Cc3ccc(O)cc3C1(C)CCN2C (centres undefined) | > 100 µM (inactive) | > 100 µM (inactive) | > 100 µM (inactive) | > 100 µM (inactive) | > 100 µM (inactive) | > 100 µM (inactive) | > 100 µM (inactive) | > 100 µM (inactive) | > 100 µM (inactive) | > 100 µM (inactive) | > 100 µM (inactive) | > 100 µM (inactive) | > 100 µM (inactive) | > 100 µM (inactive) | > 100 µM (inactive) | > 100 µM (inactive) | > 100 µM (inactive) | > 100 µM (inactive) | 
7 | CC(=O)OCC1OC(n2c3c(c(-c4ccco4)c(C#N)c2=S)CCCC3)C(OC(C)=O)C(OC(C)=O)C1OC(C)=O (centres undefined) | 17.8 µM (inactive) | > 31.6 µM (inactive) | 16.6 µM (inactive) | > 10 µM (inactive) | > 31.6 µM (inactive) | 29.6 µM (inactive) | > 31.6 µM (inactive) | 21.9 µM (inactive) | > 100 µM (inactive) | > 10 µM (inactive) | 17.6 µM (inactive) | > 31.6 µM (inactive) | 17.9 µM (inactive) | 16.3 µM (inactive) | > 31.6 µM (inactive) | > 31.6 µM (inactive) | > 31.6 µM (inactive) | 29.7 µM (inactive) | 
8 | CC/C(=C\c1ccc(Cl)c(Cl)c1)[N+](=O)[O-] | 1.75 µM (inactive) | 1.72 µM (inactive) | 2.76 µM (inactive) | 1.7 µM (inactive) | 3.4 µM (inactive) | 2.53 µM (inactive) |  | 2.23 µM (inactive) | 1.92 µM (inactive) |  | 1.89 µM (inactive) | 2.06 µM (inactive) | 2.28 µM (inactive) | 1.97 µM (inactive) | 0.948 µM (active) | 2.93 µM (inactive) | 1.94 µM (inactive) |  | 
9 | CN1CCCCC(C#N)(c2ccccc2)CC1 (centres undefined) | > 100 µM (inactive) | > 100 µM (inactive) | > 100 µM (inactive) | > 100 µM (inactive) | > 100 µM (inactive) |  | > 100 µM (inactive) |  | > 100 µM (inactive) | > 100 µM (inactive) |  | > 100 µM (inactive) |  | > 100 µM (inactive) | > 100 µM (inactive) | > 100 µM (inactive) | > 100 µM (inactive) | > 100 µM (inactive) | 
10 | O=[N+]([O-])c1ccc2nc(/C(=N/Nc3ccccc3)C(O)c3ccc(Cl)cc3Cl)c(O)nc2c1 (centres undefined) | > 100 µM (inactive) | 38.9 µM (inactive) | > 100 µM (inactive) | > 100 µM (inactive) | > 100 µM (inactive) |  |  | > 100 µM (inactive) | 52.4 µM (inactive) | > 100 µM (inactive) | > 100 µM (inactive) |  | > 100 µM (inactive) | 21.8 µM (inactive) | 29.6 µM (inactive) |  | > 100 µM (inactive) |  | 
11 | N/C(=N\c1ccc(Cl)c(Cl)c1)c1ccccc1N | 56.8 µM (inactive) | 20.6 µM (inactive) | 18.3 µM (inactive) | 17.7 µM (inactive) | 24.3 µM (inactive) | 25.3 µM (inactive) | 19.6 µM (inactive) | 42.6 µM (inactive) | 15.6 µM (inactive) | 32.7 µM (inactive) |  | 24 µM (inactive) | 15.4 µM (inactive) | 22.6 µM (inactive) |  |  | 27.1 µM (inactive) | 30.3 µM (inactive) | 24 µM (inactive)
12 | C=CCCC1(CCP(=O)(c2ccccc2)c2ccccc2)OCCO1 | > 100 µM (inactive) | > 100 µM (inactive) | > 100 µM (inactive) | > 100 µM (inactive) | > 100 µM (inactive) | > 100 µM (inactive) | > 100 µM (inactive) |  | > 100 µM (inactive) | > 100 µM (inactive) | > 100 µM (inactive) | > 100 µM (inactive) | > 100 µM (inactive) | > 100 µM (inactive) | > 100 µM (inactive) |  | > 100 µM (inactive) |  | > 100 µM (inactive)
13 | CC1=CCC(=O)[C@]2(C)C(CC(=O)O)[C@]3(C)C4=C(C)C(c5ccoc5)C[C@@H]4O[C@@H]3[C@H](O)[C@@H]12 (some centres undefined) | > 100 µM (inactive) | > 100 µM (inactive) | > 100 µM (inactive) | > 100 µM (inactive) |  | > 100 µM (inactive) | > 100 µM (inactive) |  | > 100 µM (inactive) |  | > 100 µM (inactive) | > 100 µM (inactive) | > 100 µM (inactive) | > 100 µM (inactive) |  | > 100 µM (inactive) | > 100 µM (inactive) | > 100 µM (inactive) | > 100 µM (inactive)
14 | CC(=O)N[C@@H](Cc1ccc(O)cn1)C(=O)NCc1cccc(F)c1 | > 100 µM (inactive) | > 100 µM (inactive) | > 100 µM (inactive) | > 100 µM (inactive) | > 100 µM (inactive) |  | > 100 µM (inactive) | > 100 µM (inactive) | > 100 µM (inactive) | > 100 µM (inactive) | > 100 µM (inactive) | > 100 µM (inactive) | > 100 µM (inactive) | > 100 µM (inactive) | 59.7 µM (inactive) | > 100 µM (inactive) | > 100 µM (inactive) | > 100 µM (inactive) | > 100 µM (inactive)
15 | COc1ccc(OC)c(NCC(=O)Nn2cnc3ccc(S(=O)(=O)Nc4cc(OC)ccc4OC)cc3c2=O)c1 | > 100 µM (inactive) | > 100 µM (inactive) | > 100 µM (inactive) | 37.2 µM (inactive) | 45.5 µM (inactive) | > 100 µM (inactive) | 41.3 µM (inactive) | > 100 µM (inactive) |  |  | > 100 µM (inactive) | > 100 µM (inactive) | 35.4 µM (inactive) |  | 25.4 µM (inactive) |  | 82.6 µM (inactive) | > 100 µM (inactive) | > 100 µM (inactive)
16 | COc1cc(/C=C2\N=C(c3ccccc3)N(c3cc4cc(Sc5ccccc5)ccc4[nH]3)C2=O)cc(OC)c1OC | 18.4 µM (inactive) | 11.3 µM (inactive) | 17.5 µM (inactive) | 12.7 µM (inactive) | 16.1 µM (inactive) |  | 3.72 µM (inactive) | 12.2 µM (inactive) |  | 10.1 µM (inactive) | 12.3 µM (inactive) | 12.9 µM (inactive) |  | 10.6 µM (inactive) | 2.18 µM (inactive) | 8.17 µM (inactive) | 14.8 µM (inactive) | 17.3 µM (inactive) | 9.42 µM (inactive)
17 | C=C(C)[C@@]1(O[Si](C)(C)C)CCCC[C@@H]1CC(Sc1ccccc1)Sc1ccccc1 | 15.4 µM (inactive) | 19.9 µM (inactive) | 17.6 µM (inactive) | 15.8 µM (inactive) | 19.7 µM (inactive) | 16.8 µM (inactive) | 15.4 µM (inactive) | 16.1 µM (inactive) | 16.9 µM (inactive) | 10.8 µM (inactive) | 10.2 µM (inactive) | 18.3 µM (inactive) | 15 µM (inactive) | 16.3 µM (inactive) | 11.1 µM (inactive) | 4.26 µM (inactive) | 15.3 µM (inactive) | 12.9 µM (inactive) | 
